Entries after “also recorded” stand apart in the source; their conditions may differ.
Experiments:
[1] = tested on: microtubules in carcinoma A549 cells; assay: Immunofluorescent microscopy of microtubules; format: cell-based, human
Description: Since verubulin is known to stimulate microtubule disassociation, we performed an immunofluorescent microscopy study to determine the response of microtubule dynamics in carcinoma A549 cells to the treatment with representative compounds 2b,c,e. […] Aberrant cell morphology—contraction and rounding (Figure 2A,B) or contraction and elongation (Figure 2C)—was also observed.
A549 cells were seeded on coverslips (treated with poly-l-lysine at a concentration of 33 mg/L for an hour). Compounds were added up to the corresponding concentration after 24 h attachment and growth of the cells. Then, cells were incubated 24 h.
The cells were fixed with methanol (precooled in liquid nitrogen for 20 min), no additional permeabilization was performed. To prevent non-specific binding, cells were incubated with 4% BSA in PBS for one hour. Then, a solution of mouse monoclonal antibodies against alpha-tubulin cross-linked with Alexa 488 fluoroform (Thermo Fisher Scientific, Waltham, MA, USA, 32-2588) at a concentration of 5 μg/mL in 1% BSA solution in PBS was added to the cells, and the slides were incubated at +5 °C in a water chamber for 24 h. After the end of the incubation time, the cells were washed several times with PBS buffer solution and fixed on a glass slide with Moviol. Next day, cells were imaged with a ZEISS LSM 900 (ZEISS Microscopy, GmbH, Germany) and images processed with ImageJ.

[2] = tested on: human breast cancer cell line MCF7′; assay: MTT cytotoxicity assay, MCF7′; format: cell-based; conditions: MCF7, 64 h treatment, MTT, read-out: IC50, nM MCF7′
Description: (§1) The obtained series of verubulin analogues 2a–r (which also included three by-products isolated in the reactions according to Scheme 2) were initially evaluated for cytotoxicity against commonly used human breast cancer cell line MCF7′ (fast-growth subclone), human lung epithelial carcinoma cell line A549 and etiologically non-cancer immortalized lung fibroblast cell line VA13 (WI38 subline 2RA). Cytotoxicity against immortalized human embryonic kidney cell line HEK293T, characterized by a high growth rate, was also studied regarding cytotoxicity against non-cancerous fast-growth cells. A standard MTT assay was performed; verubulin (1) served as a positive reference. The data obtained are presented in Table 1 (for dose–response curves, see Supplementary Materials).
(§2) Human breast cancer cell line MCF7′ and human lung adenocarcinoma cell line A549 were kindly provided by Dr. S. Dmitriev (Lomonosov Moscow State University), immortalized human fibroblast cell line VA13 (WI38 subline 2RA) was kindly provided by Dr. M. Rubtsova (Lomonosov Moscow State University), human embryonic kidney HEK293T cell line was kindly provided by Dr. E. Knyazhanskaya (Lomonosov Moscow State University). MCF7′, VA13, A549 and HEK293T cell lines were maintained in DMEM/F-12 (Thermo Fisher Scientific, Waltham, MA, USA) culture medium containing 10% fetal bovine serum (Thermo Fisher Scientific, Waltham, MA, USA) and 50 μg/mL penicillin and 0.05 mg/mL streptomycin at 37 °C (Thermo Fisher Scientific, Waltham, MA, USA) in 5% CO2. Cells were maintained at 37 °C in a humidified MCO-18AC incubator (Sanyo, Tokyo, Japan) supplied with 5% CO2. Cell cultures were tested for the absence of mycoplasma and validated by STR.
(§3) The cytotoxicity of the substances was tested using the 3-(4,5-dimethylthiazol-2-yl)2,5-diphenyl tetrazolium bromide (MTT) assay with some modifications. A total of 2500 cells per well for the MCF7′, HEK293T, A549 cell lines or 4000 cells per well for the VA-13 cell line were plated out in 135 μL of DMEM-F12 media (Gibco, Thermo Fisher Scientific, Waltham, MA, USA) in a 96-well plate and incubated in the 5% CO2 incubator for the first 20 h without treatment. Then, 15.8 μL of media–DMSO solutions of tested substances (final DMSO concentrations in the media were 0.5% or less) was added to the cells (triplicate each) and cells were treated for 64 h with 0.023 mg/L–50 mg/L (eight dilutions) of compounds 2f,n,o,r; 1.14 μg/L–2.5 mg/L (eight dilutions) of compounds 2a,b,d,g,h,k,l,p,q; 57.2 ng/L–125 μg/L (eight dilutions) of compounds 2e,i,j; 22.9 ng/L–50 μg/L (eight dilutions) of compounds 1,2c,m. Doxorubicin was used as a control substance. Then, the MTT reagent (Paneco LLC, Moscow, Russia) was added to cells up to a final concentration of 0.5 g/L (10 × stock solution in PBS was used) and incubated for 2 h at 37 °C in the incubator, under an atmosphere of 5% CO2. Then, the MTT solution was discarded, and 140 μL of DMSO (PharmaMed LLC, Moscow, Russia) was added. The plates were swayed on a shaker (120 rpm) to dissolve the formazan. The absorbance was measured using a microplate reader (VICTOR X5 Light Plate Reader, PerkinElmer, Waltham, MA, USA) at a wavelength of 555 nm (in order to measure formazan concentration). The results were used to construct dose–response graphs and to estimate IC50 values (IC50 is the concentration resulting in half of the maximal cytotoxic effect) with GraphPad Prism V, GraphPadSoftware, Inc., San Diego, CA, USA.

[3] = tested on: MCF7′, A549, VA13, HEK293T cell lines; assay: MTT cytotoxicity, SAR statements over the cell line panel; format: cell-based, human; conditions: for reduction of cytotoxicity on removal of para-methoxy substituent: 2a vs. 2c, 2g vs. 2i; for cytotoxicity, in words: MTT, 64 h
Description: as §1, §3

[4] = tested on: human lung epithelial carcinoma cell line A549; assay: MTT cytotoxicity assay, A549; format: cell-based; conditions: A549, 64 h treatment, MTT, read-out: IC50, nM A549
Description: as §1, §2, §3

[5] = tested on: immortalized lung fibroblast cell line VA13 (WI38 subline 2RA); assay: MTT cytotoxicity assay, VA13; format: cell-based; conditions: Homo sapiens, VA-13; 64 h treatment, MTT; read-out: IC50, nM VA13
Description: as §1, §2, §3

[6] = tested on: immortalized human embryonic kidney cell line HEK293T; assay: MTT cytotoxicity assay, HEK293T; format: cell-based; conditions: HEK-293T, 64 h treatment, MTT, read-out: IC50, nM HEK293T
Description: as §1, §2, §3

| SMILES | effect on microtubules (MTs) ([1]; 0.03 μM, A549, positive control) | IC50 [2] [nM] | effect on microtubules (MTs) ([1]; 100 μM (very high concentration), 24 h, A549) | reduction of cytotoxicity on removal of para-methoxy substituent [3] | IC50 [4] [nM] | IC50 [5] [nM] | melting point [°C] | IC50 [6] [nM] | effect on microtubules (MTs) ([1]; 10 μM, 24 h, A549) | effect on microtubules ([1]; 5–10 μM, 24 h, A549) | cytotoxicity, in words [3] | selectivity towards tumor cells ([3]; pair A549/VA13) | reduction of cytotoxicity relative to 2c ([3]; ring B enlarged to seven-membered) | activity relative to 2k ([3]; conformational restriction of 2k) |
| --- | --- | --- | --- | --- | --- | --- | --- | --- | --- | --- | --- | --- | --- | --- |
| COc1ccc(/C=C\c2cc(OC)c(OC)c(OC)c2)cc1O [CA-4, combretastatin A-4, reference compound] | full depolymerization of MTs |  |  |  |  |  |  |  |  |  |  |  |  |  |
| Cc1nc2c(c(N(C)c3ccccc3)n1)CCCC2 [Compound 2a, N,2-Dimethyl-N-phenyl-5,6,7,8-tetrahydroquinazolin-4-amine] |  | 1840 ± 810 | intact MTs; also recorded: no effect on the microtubule cytoskeleton | 2–3 orders of magnitude | 2200 ± 260 | 1400 ± 180 | 84 to 85 | 1750 ± 230 |  |  |  |  |  |  |
| Cc1ccc(N(C)c2nc(C)nc3c2CCCC3)cc1 [Compound 2b, N,2-Dimethyl-N-(4-methylphenyl)-5,6,7,8-tetrahydroquinazolin-4-amine] |  | 97 ± 7 |  |  | 110 ± 8 | 62 ± 8 | 91 to 92 | 89 ± 3 | depolymerization of MTs | pronounced or complete disruption of microtubules |  |  |  |  |
| Cc1nc2c(c(N3CCCc4ccccc43)n1)CCCC2 [Compound 2d, 4-(3,4-Dihydroquinolin-1(2H)-yl)-2-methyl-5,6,7,8-tetrahydroquinazoline] |  | 9100 ± 2200 |  |  | 12600 | 3000 ± 700 | 118 to 119 | 7300 ± 1200 |  |  |  |  |  |  |
| Cc1nc2c(c(N3CCCc4ccc([N+](=O)[O-])cc43)n1)CCCC2 [Compound 2f, 2-Methyl-4-(7-nitro-3,4-dihydroquinolin-1(2H)-yl)-5,6,7,8-tetrahydroquinazoline] |  | > 50000 |  |  | > 50000 | > 50000 | 184 to 185 | > 50000 |  |  | inactive |  |  |  |
| CN(c1ccccc1)c1nc(N)nc2c1CCCC2 [Compound 2g, N^4-Methyl-N^4-phenyl-5,6,7,8-tetrahydroquinazolinyl-2,4-diamine] |  | 28600 |  | 2–3 orders of magnitude | 36400 | 26900 | 128 to 129 | 26300 |  |  |  |  |  |  |
| Cc1ccc(N(C)c2nc(N)nc3c2CCCC3)cc1 [Compound 2h, N^4-Methyl-N^4-(4-methylphenyl)-5,6,7,8-tetrahydroquinazolinyl-2,4-diamine] |  | 210 ± 15 |  |  | 310 ± 23 | 150 ± 14 | 135 to 136 | 170 ± 18 |  |  |  |  |  |  |
| COc1ccc(N(C)c2nc(C)nc3c2CCCCC3)cc1 [Compound 2k, N-(4-Methoxyphenyl)-N,2-dimethyl-6,7,8,9-tetrahydro-5H-cyclohepta[d]pyrimidin-4-amine] |  | 53 ± 7 |  |  | 79 ± 10 | 22 ± 6 | 92 to 93 | 39 ± 6 |  |  |  | no selectivity | more than 10 times |  |
| COc1ccc2c(c1)CCCN2c1nc(C)nc2c1CCCCC2 [Compound 2l, 4-(6-Methoxy-3,4-dihydroquinolin-1(2H)-yl)-2-methyl-6,7,8,9-tetrahydro-5H-cyclohepta[d]pyrimidine] |  | 360 ± 70 |  |  | 790 ± 19 | 260 ± 80 | 122 to 123 | 450 ± 100 |  |  |  |  |  | seven to twelve times less active |
| COc1ccc(N(C)c2nc3c(c(N(C)c4ccc(OC)cc4)n2)CCCC3)cc1 [Compound 2n, N,N′-bis(4-methoxyphenyl)-N,N′-dimethyl-5,6,7,8-tetrahydroquinazolin-2,4-diamine] |  | 2500 ± 140 |  |  | 3270 ± 290 | 2290 ± 160 |  | 1720 ± 68 |  |  | moderately cytotoxic |  |  |  |
| COc1ccc2c(c1)CCCN2c1nc(O)nc2c1CCCC2 [Compound 2o, 2-Hydroxy-4-(6-methoxy-3,4-dihydroquinolin-1(2H)-yl)-5,6,7,8-tetrahydroquinazoline] |  | > 50000 |  |  | > 50000 | > 50000 |  | > 50000 |  |  | complete loss of cytotoxicity |  |  |  |
| COc1ccc2c(c1)CCCN2c1nc2c(c(N3CCCc4cc(OC)ccc43)n1)CCCC2 [Compound 2p, 2,4-Bis(6-methoxy-3,4-dihydroquinolin-1(2H)-yl)-5,6,7,8-tetrahydroquinazoline] |  | 660 ± 150 |  |  | 640 ± 76 | 290 ± 74 |  | 510 ± 33 |  |  | moderately cytotoxic |  |  |  |
| COc1ccc2c(c1)CCCN2c1nc(OC(C)C)nc2c1CCCC2 [Compound 2q, 2-Isopropoxy-4-(6-methoxy-3,4-dihydroquinolin-1(2H)-yl)-5,6,7,8-tetrahydroquinazoline] |  | 310 ± 22 |  |  | 360 ± 34 | 160 ± 20 |  | 250 ± 11 |  |  | largely restored |  |  |  |
| COc1ccc2c(c1)CCCN2c1nc2c(c(OC(C)C)n1)CCCC2 [Compound 2r, 4-Isopropoxy-2-(6-methoxy-3,4-dihydroquinolin-1(2H)-yl)-5,6,7,8-tetrahydroquinazoline] |  | 24200 |  |  | 23800 | 118000 |  | 53500 |  |  | moderately cytotoxic |  |  |  |

From publication PMC10610134, “Verubulin (Azixa) Analogues with Increased Saturation: Synthesis, SAR and Encapsulation in Biocompatible Nanocontainers Based on Ca^2+ or Mg^2+ Cross-Linked Alginate” (Pharmaceuticals, 2023)
